This is an account of results in ChEMBL document CHEMBL1138508, “Design, synthesis, and pharmacological effects of a cyclization-activated steroid prodrug for colon targeting in inflammatory bowel disease” (J Med Chem, 2009).

In series [1] the test system is Mus musculus. Kind of series: Inhibition of dextran sodium sulfate-induced ulcerative colitis in BALB/c mouse assessed as decrease in colon shortening at 5 mg/kg, po twice daily for 6 days relative to control. The format is functional, organism-based. Also noted: dose 5 mg/kg.
Series [2] concerns Mus musculus. Kind of series: Inhibition of dextran sodium sulfate-induced ulcerative colitis in BALB/c mouse assessed as decrease in disease activity index at 5 mg/kg, po twice daily for 6 days relative to control. Further details: dose 5 mg/kg. The format is functional, organism-based.
The subject of series [3] is Mus musculus. The series can be described thus: Inhibition of dextran sodium sulfate-induced ulcerative colitis in BALB/c mouse assessed as decrease in body weight loss at 5 mg/kg, po twice daily for 6 days relative to control. Type of series: functional, organism-based. Also noted: dose 5 mg/kg.
Series [4] has as its system Mus musculus. Kind of series: Toxicity in dextran sodium sulfate treated BALB/c mouse ulcerative colitis model assessed as reduction in thymus weight to body weight ratio at 5 mg/kg, po administered twice daily for 6 days relative to control. The format is organism-based. Further details: dose 5 mg/kg, route oral. The settings on record: in vivo, 144 h.
A short description of series [5]: Chemical stability assessed as half life at neutrality pH. Type of series: physicochemical.
The nature of series [6]: Stability at pH 8 to 9 after 24 hrs. Type of series: physicochemical. The settings on record: buffer, pH 8, 24 h.
A short description of series [7]: Stability at pH 3.4 to 7.4 after 24 hrs. The format is physicochemical. The following applies: buffer, pH 3.4, 24 h.
Series [8] in a line: Apparent permeability from basolateral to apical side in human Caco-2 cells by HPLC. The format is ADME, cell-based. For orientation: Caco-2 monolayers are a common model of the intestinal barrier.
Series [9] is described as follows: Stability in human gastric juice after 24 hrs. Type of series: ADME, tissue-based.
A short description of series [10]: Stability assessed as half life at pH 4 by HPLC. Type of series: physicochemical. The following applies: buffer.
Series [11] can be described thus: Stability assessed as half life at pH 8 by HPLC. The following applies: buffer. Type of series: physicochemical.
The nature of series [12]: Stability assessed as half life at pH 2.6 by HPLC. Type of series: physicochemical. The settings on record: buffer.
Series [13] in a line: Stability assessed as half life at pH 7.4 by HPLC. Type of series: physicochemical. The settings on record: buffer.
In series [14] the test system is Mus musculus. Kind of series: Inhibition of dextran sodium sulfate-induced ulcerative colitis in po dosed BALB/c mouse assessed as decrease in colon shortening administered twice daily for 6 days relative to control. Type of series: functional, organism-based.
The test system of series [15] is Mus musculus. The series can be described thus: Toxicity in dextran sodium sulfate treated po dosed BALB/c mouse ulcerative colitis model assessed as reduction in thymus weight to body weight ratio administered twice daily for 6 days relative to control. The format is organism-based. The settings on record: in vivo, 144 h.
In series [16] the test system is Mus musculus. The series can be described thus: Inhibition of dextran sodium sulfate-induced ulcerative colitis in po dosed BALB/c mouse assessed as decrease in disease activity index administered twice daily for 6 days relative to control. Type of series: functional, organism-based.
The test system of series [17] is Mus musculus. Kind of series: Inhibition of dextran sodium sulfate-induced ulcerative colitis in po dosed BALB/c mouse assessed as decrease in body weight loss administered twice daily for 6 days relative to control. The format is functional, organism-based.

Activity calls are given as the source filed them. The calls are words filed in the database; no cut-off is given here.

With `C[C@]12C=CC(=O)C=C1CC[C@@H]1[C@@H]2[C@@H](O)C[C@@]2(C)[C@H]1CC[C@]2(O)C(=O)COC(=O)Cc1ccccc1/N=N/c1ccc(O)c(C(=O)O)c1`, the result in the series on Mus musculus [1], in the series with Mus musculus [2] and with Mus musculus [3] was inactive. Also, in the series on Mus musculus [4], the Activity result is recorded as “Non-toxic”.

The term half-life denotes the time in which the quantity being followed falls by half. In the case of `COC(=O)CCc1ccccc1N`, the half-life in series [5] worked out at 57 min.

In general, Papp B→A refers to how fast a substance crosses the layer from the basolateral side. For the molecule `C[C@]12C=CC(=O)C=C1CC[C@@H]1[C@@H]2[C@@H](O)C[C@@]2(C)[C@H]1CC[C@]2(O)C(=O)COC(=O)CCc1ccccc1/N=N/c1ccc(O)c(C(=O)O)c1`, the outcome in the series on Mus musculus [1], in the series on Mus musculus [2] and in the series on Mus musculus [3] was Active. In addition, the Stability result is “Unstable” in series [6], “Stable” in series [7] and “Stable” in [9]. The Papp B→A in series [8] was determined as 14 ×10⁻⁶ cm/s. In addition, in the series with Mus musculus [4], the Activity entry is “Non-toxic”.

Regarding `C[C@]12CCC(=O)C=C1CC[C@@H]1[C@@H]2[C@@H](O)C[C@@]2(C)[C@H]1CC[C@]2(O)C(=O)COC(=O)CCc1ccccc1N`, the half-life in [10] came to 30 min; in series [11], 44 min; in series [12], 54 min; in series [13], 73 min.

With `C[C@]12C=CC(=O)C=C1CC[C@@H]1[C@@H]2[C@@H](O)C[C@@]2(C)[C@H]1CC[C@]2(O)C(=O)CO` [PREDNISOLONE], the outcome with Mus musculus [14], in the series on Mus musculus [16] and with Mus musculus [17] was Active. The Activity result in the series on Mus musculus [15] is reported as “Toxic”.
